# Laboratory results as given in patent US9872919B2, “Prodrugs for selective anticancer therapy” (THE RESEARCH FOUNDATION FOR THE STATE UNIVERSITY OF NEW YORK, priority 2012, dated 2018).
# Where a SMILES comes first, the peptide text is derived from it. The star is where a group is joined. Cbz = O=C(OCc1ccccc1)*
# Experiments:
# BxPC3 shSki cells = experiment: MTT cell viability assay, BxPC3 shSki; type: cell-based, human; conditions: for difference in IC50 values shSki versus shGFP: BxPC3 shSki over shGFP; for IC50: Homo sapiens, BXPC-3, MTT, 72 hr, Ski knockdown
# Protocol: (§1) FIG. 24. Effect of the prodrug on cell viability of BxPC3 cells (shGFP and shSki). Cells were treated with the indicated dose of drugs (BKAc-5FCR or 5FCR) for 72 hr followed by MTT assay. Data represent mean values of triplicate measurements±standard deviation. IC50 values were derived from nonlinear curve fit of the dose response data using an outlier's exclusion, variable slope model (GraphPad Prism software). All values are means of at least two independent experiments.
# (§2) The in vitro efficacy of the compounds in a series of BxPC3 and CFPac-1 derivatives with reduced Class I HDAC activity following Ski knockdown (shSki), HDAC3 knockdown and control (shGFP) was assessed. The growth inhibitory/viability effects of the compounds (IC50 value, the concentration resulting in 50% growth inhibition) on the various cell lines were determined by dose response curve analysis (GraphPad Prism software) of MTT [3-(4,5dimethylthiazol-2-yl)-2,5-diphenyl-tetrazolium bromide] cell viability assay. If the prodrugs are activated in an HDAC-dependent manner, the cells with reduced HDAC activity would be predicted to be more resistant to the prodrug treatment than control cells, while the effect of free parental drugs on both cells would be expected to be similar.
# [1] = tested on: BxPC3 shGFP control cells; experiment: MTT cell viability assay, BxPC3 shGFP; type: cell-based; conditions: Homo sapiens, BXPC-3, 72 hr
# Protocol: as §1, §2
# [2] = tested on: HDAC and cathepsin L in BxPC3 and CFPac-1 cells; experiment: Live cell enzymatic assay with Boc-Lys(Ac)-AMC in pancreatic cancer cells; type: cell-based, human; conditions: for activation of substrate Boc-Lys(Ac)-AMC (AMC release): 6 hr, Z-FY-CHO 10 μM
# Protocol: FIG. 5. A. HDAC assay using different substrates in BxPC3 cells (shGFP and shSki). Cells were incubated with Boc-Lys(Ac)-AMC or Ac-Arg-Gly-Lys(Ac)-AMC (25 μM) for 1 hr with DMSO (vehicle) or TSA (1 μM) as indicated, followed by cell lysis and trypsin treatment, and fluorescence measurements. Data represent mean values of triplicate measurements±standard deviation. RFU, relative fluorescent units. B. Similar experiment was done as in A but without cell lysis and trypsin treatment. Cells were incubated with the substrates for 2.5 hr.
# FIG. 6. A. Release of AMC by combined HDAC and endogenous protease-dependent enzymatic reaction in BxPC3 and CFPac-1 cells (shGFP and shSki). Cells were incubated with substrate Boc-Lys(Ac)-AMC (25 μM) for 6 hr with DMSO (vehicle), TSA (1 μM), or Z-FY-CHO (10 μM) as indicated, followed by fluorescence measurements. Data represent mean values of triplicate measurements±standard deviation. RFU, relative fluorescent units. B. Time course of AMC release in BxPC3 cells (shGFP and shSki). Each cells were incubated with Boc-Lys(Ac)-AMC (25 μM) for 2.5, 6.0, and 23 hr with DMSO (vehicle) or TSA (1 μM) as indicated.
# (§3) Tissue culture based standard HDAC assays were performed by commercially available fluorimetric HDAC assay kit (SensoLyte, AnaSpec) according to the manufacturer's instruction with modification of using 25 μM Boc-Lys(Ac)-AMC (Bachem) as substrate and measuring parameter (Ex/Em=355 nm/460 nm) for AMC. Basically, HDAC substrate 25 μM Boc-Lys(Ac)-AMC [either with DMSO or 1 μM TSA (Sigma)] was applied to the overnight culture seeded from 6×10^4 cells in 100 μl medium in 96-well tissue culture plates, followed by 2 to 3 h incubation at 37° C. with 5% CO2 atmosphere. Then the deacetylation reaction was terminated by addition of HDAC developer solution containing cell lysis buffer and trypsin reagents. After 15 m incubation at room temperature, the fluorescent signal of AMC was measured by SpectraMax M5 microplate reader (Molecular Devices) at Ex/Em=355 nm/460 nm. Live cell lysyl endopeptidase assay was performed by applying the substrate 25 μM Boc-Lys-AMC (Bachem) [either with DMSO or 100 μM Z-FY-CHO (EMD)] to the overnight culture seeded from 6×10^4 cells in 100 μl medium in 96-well tissue culture plates, followed by 20 h incubation at 37° C. with 5% CO2 atmosphere, then the fluorescent signal of AMC was measured. Live cell enzymatic assay using Boc-Lys(Ac)-AMC was performed by applying the substrate 25 μM Boc-Lys(Ac)-AMC (either with DMSO, 1 μM TSA or 100 μM Z-FY-CHO) to the overnight culture seeded from 6×10^4 cells in 100 μl medium in 96-well tissue culture plates, followed by 20 h incubation at 37° C. with 5% CO2 atmosphere, then the fluorescent signal of AMC was measured. Experiments were repeated at least three times.
# BXPC-3 cells = experiment: MTS cell viability assay with or without TSA; type: cell-based, human; conditions: 20 μM, 72 hr, with TSA (50 μM as printed)
# Protocol: FIG. 25. Selective cytotoxicity by BKAc-5FCR. Human pancreatic BXPC3 cells were treated with DMSO (vehicle), BKAc-5FCR (20 μM), or 5FCR (20 μM) for 72 hr with or without TSA (50 μM) followed by MTS cell viability assay. Representative phase contrast images of cells treated with DMSO (vehicle) or BKAc-5FCR (20 μM) for 72 hr with or without TSA (50 μM) are shown.
# [3] = tested on: HCT116, HT29, CCD841-CoN and Caco-2 cells; experiment: Immunological detection of Puro-labeled proteins in cells; type: cell-based, human; conditions: immunoblot; Boc-KAc-Puro 16.9 μM 20 h; Puro 2.1 μM 16 h
# Protocol: (§4) FIG. 27. Levels of Puro-incorporated proteins in the cells were monitored by immunoblotting. Indicated cell lines were treated either with vehicle control DMSO or Boc-KAc-Puro (16.9 μM) in the presence or absence of TSA (0.5 μM) for 20 h, followed by preparation of cell lysates. The lower panel (anti-α-Tubulin) serves as a loading control.
# as §4, with “28.” for “27.”, “Puro (2.1” for “Boc-KAc-Puro (16.9”, “16” for “20”, “lysates. […]” for “lysates.”
# Cultured cells or tissue samples were sonicated in RIPA lysis buffer (1% NP-40, 0.1% SDS, 50 mM Tris-HCl pH 7.4, 150 mM NaCl, 0.5% sodium deoxycholate, 1 mM EDTA) supplemented with PMSF and protease inhibitor cocktail (Roche) on ice followed by clarification. Protein lysates were separated on sodium dodecyl sulfate-polyacrylamide gels and transferred onto nitrocellulose membranes (Whatman). The primary antibodies used were anti-puromycin (3RH11, KeraFAST) and anti-α-tubulin (Sigma-Aldrich). Proteins of interest were detected with anti-mouse secondary antibody by chemiluminescence (ECL Kit, GE Healthcare Life Sciences).
# [4] = tested on: HCT116, HT29, CCD841-CoN and Caco-2 cells; experiment: Cell killing by parental Puro (MTS); type: cell-based, human
# Protocol: FIG. 14. Inhibition of cell viability by parental Puro. The cell lines were treated with the indicated doses of Puro (0, 1.1, 2.1, 4.2, or 8.4 μM) for 3 d followed by MTS assay. Data represent mean values of triplicate mesurements±s.d.
# Cell number was determined by cell counting using improved Neubauer hemacytometer. Cell viability was calculated as the number of viable cells divided by the total number of cells using Trypan Blue Stain (Invitrogen) to distinguish non-viable cells. Data were obtained from duplicated samples with quadruplicate measurements. MTS based cell viability assay was performed using CellTiter 96 Aqueous Cell Proliferation Assay (Promega) according to the manufacturer's instruction. Either 1 μl of DMSO alone or variable concentrations of BKAc-Puro or Puro in DMSO were added to the cell lines seeded at 5×10^4 cells per well in 96-well tissue culture plates in 100 μl of the growth medium, followed by 3-5 d incubation at 37° C. with 5% CO2 atmosphere. […] After additional 2-3 h incubation, the absorbance of the formazan at 490 nm was measured by the microplate reader. […] Determination of non-viable cells using PI staining was performed by adding 1 μg/ml of PI solution (Sigma) to the cell culture, prior to the examination under fluorescence microscopy (Axiovert 3, Carl Zeiss) through a×32 objective equipped with a digital imaging processor (Infinity 3, Lumenera).
# cathepsin L (CTSL) = experiment: Live cell lysyl endopeptidase assay with Boc-Lys-AMC; type: cell-based; conditions: Z-FY-CHO 100 μM, live cells, all cases tested
# Protocol: FIG. 2. Comparative live cell lysyl endopeptidase activity of the same cell lines as in FIG. 1 using substrate Boc-Lys-AMC either with vehicle control DMSO or Z-FY-CHO (100 μM). Data represent mean values of triplicate measurements±s.d. RFU, relative fluorescent units.
# as §3, with “Then the deacetylation reaction was terminated by addition of HDAC developer solution containing cell lysis buffer and trypsin reagents.” left out, “Live cell enzymatic assay using Boc-Lys(Ac)-AMC was performed by applying the substrate 25 μM Boc-Lys(Ac)-AMC (either with DMSO, 1 μM TSA or 100 μM Z-FY-CHO) to the overnight culture seeded from 6×10^4 cells in 100 μl medium in 96-well tissue culture plates, followed by 20 h incubation at 37° C. with 5% CO2 atmosphere, then the fluorescent signal of AMC was measured. Experiments were repeated at least three times.” left out
difference in IC50 values shSki versus shGFP (BxPC3 shSki cells),IC50 (BxPC3 shSki cells) [µM],IC50 [1] [µM],Structure (SMILES),activation of substrate Boc-Lys(Ac)-AMC (AMC release) ([2]; TSA 1 μM),other results
no significant changes,1.2,1.3,"Nc1nc(=O)n([C@@H]2O[C@H](CO)[C@@H](O)[C@H]2O)cc1F [5FCR, 5-fluorocytidine, reference compound]",,
,,,CC(=O)NCCCC[C@H](NC(=O)OC(C)(C)C)C(=O)Nc1ccc2c(C)cc(=O)oc2c1 [Boc-Lys(Ac)-AMC],,"activation of substrate in live cells relative to total HDAC activity ([2]; BxPC3, 25 μM, 2.5 hr, without cell lysis and trypsin): approximately 50%"
two-fold,5.2,2.6,"CC(=O)NCCCCC(NC(=O)OC(C)(C)C)C(=O)Nc1nc(=O)n([C@@H]2O[C@H](CO)[C@@H](O)[C@H]2O)cc1F (stereo partly drawn) [BKAc-5FCR, t-butyl (6-acetamido-1-((1-((2R,3R,4S,5R)-3,4-dihydroxy-5-(hydroxymethyl)tetrahydrofuran-2-yl)-5-fluoro-2-oxo-1,2-dihydropyrimidin-4-yl)amino)-1-oxohexan-2-yl)carbamate]",,cytotoxic effect in the presence of HDAC inhibitor TSA (BXPC-3 cells): substantially compromised
,,,"COc1ccc(C[C@H](N)C(=O)N[C@H]2[C@@H](O)[C@H](n3cnc4c(N(C)C)ncnc43)O[C@@H]2CO)cc1 [Puro, puromycin, reference compound]",,"intensity of Puro incorporation, malignant vs normal and non-malignant cells [3]: no difference; cell killing [4]: kill all of these cells examined"
,,,"CC(/C=C/C(=O)NO)=C\[C@@H](C)C(=O)c1ccc(N(C)C)cc1 [TSA, Trichostatin A]",completely inhibited activation,"AMC release, time course ([2]; BxPC3, 20 hr time course, TSA 1 μM): AMC release was inhibited"
,,,O=C[C@H](Cc1ccc(O)cc1)NC(=O)[C@H](Cc1ccccc1)NC(=O)OCc1ccccc1 [Z-FY-CHO] (Cbz-Phe-Tyr-aldehyde),completely abrogated the activation of the substrate,release of AMC from Boc-Lys-AMC (cathepsin L (CTSL)): significantly blocked
